pEC50: −log10 of the molar value. Where two headings read alike, the source gives them in different places.
Legend:
hGIPR = biological target: T1, hGIPR (Homo sapiens, UniProt P48546); assay: hGIPR CreLuc assay in 0.5% and 100% plasma (CHO CRE-luciferase reporter cells); format: cell-based; conditions: 0.5% human plasma, read-out: hGIPR 0.5% hP
T1 construct: expressed in transfected cells; host or cells: CHO CRE-luciferase reporter cells
T1 sequence (P48546 22-466): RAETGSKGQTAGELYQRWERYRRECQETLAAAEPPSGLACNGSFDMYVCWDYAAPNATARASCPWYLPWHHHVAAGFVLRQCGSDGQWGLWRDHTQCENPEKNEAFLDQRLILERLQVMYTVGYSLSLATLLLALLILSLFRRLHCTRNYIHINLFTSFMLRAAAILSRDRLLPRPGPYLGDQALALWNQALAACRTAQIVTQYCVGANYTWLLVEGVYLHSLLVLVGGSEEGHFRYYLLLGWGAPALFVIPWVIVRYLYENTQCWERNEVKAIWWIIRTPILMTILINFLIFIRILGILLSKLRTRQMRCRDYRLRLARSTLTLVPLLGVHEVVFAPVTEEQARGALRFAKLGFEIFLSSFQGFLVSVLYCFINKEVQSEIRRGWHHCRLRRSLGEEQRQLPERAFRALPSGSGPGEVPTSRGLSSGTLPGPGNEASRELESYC

hGLP1R = biological target: T2, hGLP1R (Homo sapiens, UniProt P43220); assay: hGLP1R CreLuc assay in 0.5% and 100% plasma (HEK-293 CRE-luciferase reporter cells); format: cell-based; conditions: HEK-293 reporter cells
T2 construct: expressed in transfected cells; host or cells: HEK-293 CRE-luciferase reporter cells

hNPY2R = biological target: T3, hNPY2R (Homo sapiens, UniProt P49146); assay: hNPY2R CreLuc assay in 0.5% and 100% plasma (HEK-293 CRE-luciferase reporter cells); format: cell-based; conditions: HEK-293 reporter cells
T3 construct: expressed in transfected cells; host or cells: HEK-293 CRE-luciferase reporter cells
T3 sequence (P49146 1-381): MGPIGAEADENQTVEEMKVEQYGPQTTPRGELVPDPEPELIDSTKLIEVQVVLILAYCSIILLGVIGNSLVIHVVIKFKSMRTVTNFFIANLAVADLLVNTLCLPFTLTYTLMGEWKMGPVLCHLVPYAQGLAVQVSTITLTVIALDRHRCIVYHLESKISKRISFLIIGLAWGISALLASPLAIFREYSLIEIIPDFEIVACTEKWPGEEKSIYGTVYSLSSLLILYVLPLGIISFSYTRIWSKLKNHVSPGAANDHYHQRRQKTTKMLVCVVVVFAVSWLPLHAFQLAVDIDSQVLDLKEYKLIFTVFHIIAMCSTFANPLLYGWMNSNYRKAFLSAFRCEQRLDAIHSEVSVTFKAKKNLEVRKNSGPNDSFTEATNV

[1] = Solubility in 0.1 M phosphate buffer at pH 7; format: physicochemical; conditions: 0.1 M phosphate buffer at pH 7, 10 mg/mL final peptide concentration, shaking 2 hours at room temperature, peptides as TFA-salts; measured sample pH 6.5-7.0
[2] = 0.5% human plasma, read-out: hGLP1R 0.5% hP
[3] = 0.5% human plasma, read-out: hNPY2R 0.5% hP
[4] = 100% human plasma, read-out: hNPY2R 100% hP

T2 sequence (P43220 24-463): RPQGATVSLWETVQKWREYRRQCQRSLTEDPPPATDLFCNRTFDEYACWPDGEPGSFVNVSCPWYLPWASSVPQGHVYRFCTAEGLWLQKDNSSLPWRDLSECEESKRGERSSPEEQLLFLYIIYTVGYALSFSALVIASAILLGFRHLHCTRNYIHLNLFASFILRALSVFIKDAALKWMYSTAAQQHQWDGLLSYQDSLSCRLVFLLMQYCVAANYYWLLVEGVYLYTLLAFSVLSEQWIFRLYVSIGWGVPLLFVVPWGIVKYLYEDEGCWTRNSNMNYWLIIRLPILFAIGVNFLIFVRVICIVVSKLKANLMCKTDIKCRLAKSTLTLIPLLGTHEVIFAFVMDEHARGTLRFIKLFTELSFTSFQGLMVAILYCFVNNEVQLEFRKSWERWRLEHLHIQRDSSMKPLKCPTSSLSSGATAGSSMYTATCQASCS

Row | SMILES | pEC50 (hGIPR) | pEC50 (hGLP1R; [2]) | pEC50 (hGLP1R; 100% human plasma, read-out: hGLP1R 100% hP) | pEC50 (hNPY2R; [3]) | solubility at 2 h [1] | pEC50 (hNPY2R; [4])
1 | CC[C@H](C)[C@H](NC(=O)[C@H](CC(C)C)NC(=O)[C@H](Cc1c[nH]cn1)NC(=O)[C@H](CCCNC(=N)N)NC(=O)[C@@H](NC(=O)[C@H](Cc1ccccc1)NC(=O)[C@H](C)NC(=O)C(C)(C)NC(=O)[C@H](CCC(N)=O)NC(=O)[C@H](C)NC(=O)[C@H](CCC(N)=O)NC(=O)[C@H](CCCCN)NC(=O)[C@H](CC(=O)O)NC(=O)[C@H](CC(C)C)NC(=O)C(C)(C)NC(=O)[C@@H](NC(=O)[C@H](CO)NC(=O)[C@H](Cc1ccc(O)cc1)NC(=O)[C@H](CC(=O)O)NC(=O)[C@H](CO)NC(=O)[C@@H](NC(=O)[C@H](Cc1ccccc1)NC(=O)[C@@H](NC(=O)CNC(=O)[C@H](CCC(=O)O)NC(=O)C(C)(C)NC(=O)[C@@H](N)Cc1ccc(O)cc1)[C@@H](C)O)[C@@H](C)O)[C@@H](C)CC)C(C)C)C(=O)N[C@@H](CC(N)=O)C(=O)N[C@@H](CCCCNC(=O)[C@@H](N)CCCCNC(=O)CC[C@H](NC(=O)CC[C@H](NC(=O)CC[C@H](NC(=O)CC[C@H](NC(=O)CC[C@H](NC(=O)CC[C@H](NC(=O)CCCCCCCCCCCCCCCCC(=O)O)C(=O)O)C(=O)O)C(=O)O)C(=O)O)C(=O)O)C(=O)O)C(=O)NC(C)(C)C(=O)N[C@H](C(=O)N[C@@H](CCCNC(=N)N)C(=O)N[C@@H](CCC(N)=O)C(=O)N[C@@H](CCCNC(=N)N)C(=O)N[C@@H](Cc1ccc(O)cc1)C(N)=O)[C@@H](C)O [Compound 105, Y-Aib-E-G-T-F-T-S-D-Y-S-I-Aib-L-D-K-Q-A-Q-Aib-A-F-V-R-H-L-I-N-K(1,3)-Aib-T-R-Q-R-Y-NH2.C18DA-gGlu-gGlu-gGlu-gGlu-gGlu-gGlu-eLys(1,2)] | 9.40 | 9.52 | 8.47 | 7.70 | 8000 µg/mL | 
2 | CC[C@H](C)[C@H](NC(=O)[C@H](CC(C)C)NC(=O)[C@H](Cc1c[nH]cn1)NC(=O)[C@H](CCCNC(=N)N)NC(=O)[C@@H](NC(=O)[C@H](Cc1ccccc1)NC(=O)[C@H](C)NC(=O)C(C)(C)NC(=O)[C@H](CCC(N)=O)NC(=O)[C@H](C)NC(=O)[C@H](CCC(N)=O)NC(=O)[C@H](CCCCN)NC(=O)[C@H](CCC(=O)O)NC(=O)[C@H](CC(C)C)NC(=O)C(C)(C)NC(=O)[C@@H](NC(=O)[C@H](CO)NC(=O)[C@H](Cc1ccc(O)cc1)NC(=O)[C@H](CC(=O)O)NC(=O)[C@H](CO)NC(=O)[C@@H](NC(=O)[C@H](Cc1ccccc1)NC(=O)[C@@H](NC(=O)CNC(=O)[C@H](CCC(=O)O)NC(=O)C(C)(C)NC(=O)[C@@H](N)Cc1ccc(O)cc1)[C@@H](C)O)[C@@H](C)O)[C@@H](C)CC)C(C)C)C(=O)N[C@@H](CC(N)=O)C(=O)N[C@@H](CCCCNC(=O)[C@@H](N)CCCCNC(=O)CC[C@H](NC(=O)CC[C@H](NC(=O)CC[C@H](NC(=O)CC[C@H](NC(=O)CC[C@H](NC(=O)CC[C@H](NC(=O)CCCCCCCCCCCCCCCCC(=O)O)C(=O)O)C(=O)O)C(=O)O)C(=O)O)C(=O)O)C(=O)O)C(=O)NC(C)(C)C(=O)N[C@H](C(=O)N[C@@H](CCCNC(=N)N)C(=O)N[C@@H](CCC(N)=O)C(=O)N[C@@H](CCCNC(=N)N)CC(=O)N[C@@H](Cc1ccc(O)cc1)C(N)=O)[C@@H](C)O [Compound 146, Y-Aib-E-G-T-F-T-S-D-Y-S-I-Aib-L-E-K-Q-A-Q-Aib-A-F-V-R-H-L-I-N-K(1,3)-Aib-T-R-Q-bhArg-Y-NH2.C18DA-gGlu-gGlu-gGlu-gGlu-gGlu-gGlu-eLys(1,2)] | 9.70 | 9.00 |  |  | 5000 µg/mL | 7.05
3 | CC[C@H](C)[C@H](NC(=O)[C@H](CC(C)C)NC(=O)[C@H](Cc1c[nH]cn1)NC(=O)[C@H](CCCNC(=N)N)NC(=O)[C@@H](NC(=O)[C@H](Cc1ccccc1)NC(=O)[C@H](CCC(=O)O)NC(=O)C(C)(C)NC(=O)[C@H](CCC(N)=O)NC(=O)[C@H](C)NC(=O)[C@H](CCC(=O)O)NC(=O)[C@H](CCC(=O)O)NC(=O)[C@H](CCC(=O)O)NC(=O)[C@H](CC(C)C)NC(=O)C(C)(C)NC(=O)[C@@H](NC(=O)[C@H](CO)NC(=O)[C@H](Cc1ccc(O)cc1)NC(=O)[C@H](CC(=O)O)NC(=O)[C@H](CO)NC(=O)[C@@H](NC(=O)[C@H](Cc1ccccc1)NC(=O)[C@@H](NC(=O)CNC(=O)[C@H](CCC(=O)O)NC(=O)C(C)(C)NC(=O)[C@@H](N)Cc1ccc(O)cc1)[C@@H](C)O)[C@@H](C)O)[C@@H](C)CC)C(C)C)C(=O)N[C@@H](CC(N)=O)C(=O)N[C@@H](CCCCNC(=O)CC[C@H](NC(=O)CC[C@H](NC(=O)CC[C@H](NC(=O)CC[C@H](NC(=O)CCCCCCCCCCCCCCCCC(=O)O)C(=O)O)C(=O)O)C(=O)O)C(=O)O)C(=O)NC(C)(C)C(=O)N[C@H](C(=O)N[C@@H](CCCNC(=N)N)C(=O)N[C@@H](CCC(N)=O)C(=O)N[C@@H](CCCNC(=N)N)C(=O)N[C@@H](Cc1ccc(O)cc1)C(N)=O)[C@@H](C)O [Compound 64, Y-Aib-E-G-T-F-T-S-D-Y-S-I-Aib-L-E-E-E-A-Q-Aib-E-F-V-R-H-L-I-N-K(1,3)-Aib-T-R-Q-R-Y-NH2.C18DA-gGlu-gGlu-gGlu-gGlu(1,2)] | 9.30 | 9.30 |  | 6.79 | 4800 µg/mL | 

Results, then the compound that gave them:

Row | pEC50 (hGIPR) | pEC50 (hGLP1R; [2]) | pEC50 (hGLP1R; 100% human plasma, read-out: hGLP1R 100% hP) | pEC50 (hNPY2R; [3]) | solubility at 2 h [1] | pEC50 (hNPY2R; [4]) | SMILES
4 | 9.22 | 8.42 |  |  | 4700 µg/mL | 6.87 | CC[C@H](C)[C@H](NC(=O)[C@H](CC(C)C)NC(=O)[C@H](Cc1c[nH]cn1)NC(=O)[C@H](CCCNC(=N)N)NC(=O)[C@@H](NC(=O)[C@H](Cc1ccccc1)NC(=O)[C@H](C)NC(=O)C(C)(C)NC(=O)[C@H](CCC(N)=O)NC(=O)[C@H](C)NC(=O)[C@H](CCC(N)=O)NC(=O)[C@H](CCCCN)NC(=O)[C@H](CCC(=O)O)NC(=O)[C@H](CC(C)C)NC(=O)C(C)(C)NC(=O)[C@@H](NC(=O)[C@H](CO)NC(=O)[C@H](Cc1ccc(O)cc1)NC(=O)[C@H](CC(=O)O)NC(=O)[C@H](CO)NC(=O)[C@@H](NC(=O)[C@H](Cc1ccccc1)NC(=O)[C@@H](NC(=O)CNC(=O)[C@H](CCC(=O)O)NC(=O)C(C)(C)NC(=O)[C@@H](N)Cc1ccc(O)cc1)[C@@H](C)O)[C@@H](C)O)[C@@H](C)CC)C(C)C)C(=O)N[C@@H](CC(N)=O)C(=O)N[C@@H](CCCCNC(=O)[C@@H](N)CCCNC(=O)CC[C@H](NC(=O)CC[C@H](NC(=O)CC[C@H](NC(=O)CC[C@H](NC(=O)CC[C@H](NC(=O)CC[C@H](NC(=O)CCCCCCCCCCCCCCCCCCC(=O)O)C(=O)O)C(=O)O)C(=O)O)C(=O)O)C(=O)O)C(=O)O)C(=O)NC(C)(C)C(=O)N[C@H](C(=O)N[C@@H](CCCNC(=N)N)C(=O)N[C@@H](CCC(N)=O)C(=O)N[C@@H](CCCNC(=N)N)C(=O)N[C@@H](Cc1ccc(O)cc1)C(N)=O)[C@@H](C)O [Compound 97, Y-Aib-E-G-T-F-T-S-D-Y-S-I-Aib-L-E-K-Q-A-Q-Aib-A-F-V-R-H-L-I-N-K(1,3)-Aib-T-R-Q-R-Y-NH2.C20DA-gGlu-gGlu-gGlu-gGlu-gGlu-gGlu-dtOrn(1,2)]
5 | 9.70 | 8.77 |  |  | 4900 µg/mL | 7.24 | CC[C@H](C)[C@H](NC(=O)[C@H](CC(C)C)NC(=O)[C@H](Cc1c[nH]cn1)NC(=O)[C@H](CCCNC(=N)N)NC(=O)[C@@H](NC(=O)[C@H](Cc1ccccc1)NC(=O)[C@H](C)NC(=O)C(C)(C)NC(=O)[C@H](CCC(N)=O)NC(=O)[C@H](C)NC(=O)[C@H](CCC(N)=O)NC(=O)[C@H](CCCCN)NC(=O)[C@H](CCC(=O)O)NC(=O)[C@H](CC(C)C)NC(=O)C(C)(C)NC(=O)[C@@H](NC(=O)[C@H](CO)NC(=O)[C@H](Cc1ccc(O)cc1)NC(=O)[C@H](CC(=O)O)NC(=O)[C@H](CO)NC(=O)[C@@H](NC(=O)[C@H](Cc1ccccc1)NC(=O)[C@@H](NC(=O)CNC(=O)[C@H](CCC(=O)O)NC(=O)C(C)(C)NC(=O)[C@@H](N)Cc1ccc(O)cc1)[C@@H](C)O)[C@@H](C)O)[C@@H](C)CC)C(C)C)C(=O)N[C@@H](CC(N)=O)C(=O)N[C@@H](CCCCNC(=O)[C@@H](N)CCCNC(=O)CC[C@H](NC(=O)CC[C@H](NC(=O)CC[C@H](NC(=O)CC[C@H](NC(=O)CC[C@H](NC(=O)CC[C@H](NC(=O)CCCCCCCCCCCCCCCCC(=O)O)C(=O)O)C(=O)O)C(=O)O)C(=O)O)C(=O)O)C(=O)O)C(=O)NC(C)(C)C(=O)N[C@H](C(=O)N[C@@H](CCCNC(=N)N)C(=O)N[C@@H](CCC(N)=O)C(=O)N[C@@H](CCCNC(=N)N)C(=O)N[C@@H](Cc1ccc(O)cc1)C(N)=O)[C@@H](C)O [Compound 87, Y-Aib-E-G-T-F-T-S-D-Y-S-I-Aib-L-E-K-Q-A-Q-Aib-A-F-V-R-H-L-I-N-K(1,3)-Aib-T-R-Q-R-Y-NH2.C18DA-gGlu-gGlu-gGlu-gGlu-gGlu-gGlu-dtOrn(1,2)]

From patent US20250382344A1, “Soluble GLP1/GIP/NPY2 Receptor Triple Agonists” (Boehringer Ingelheim International GmH, priority 2024, published 2025)
